Assay results published in patent US20240228489A1, “POSITIVE ALLOSTERIC MODULATORS OF THE MUSCARINIC ACETYLCHOLINE RECEPTOR M1” (Vanderbilt University, priority 2021, published 2024).

Tests used:
human mAChR M1 [1] = target: T1, human mAChR M1 (Homo sapiens, UniProt P11229); experiment: mAChR M1 cell-based functional assay (calcium mobilization), PAM mode: increase in the EC20 acetylcholine response
T1 sequence (P11229 1-460): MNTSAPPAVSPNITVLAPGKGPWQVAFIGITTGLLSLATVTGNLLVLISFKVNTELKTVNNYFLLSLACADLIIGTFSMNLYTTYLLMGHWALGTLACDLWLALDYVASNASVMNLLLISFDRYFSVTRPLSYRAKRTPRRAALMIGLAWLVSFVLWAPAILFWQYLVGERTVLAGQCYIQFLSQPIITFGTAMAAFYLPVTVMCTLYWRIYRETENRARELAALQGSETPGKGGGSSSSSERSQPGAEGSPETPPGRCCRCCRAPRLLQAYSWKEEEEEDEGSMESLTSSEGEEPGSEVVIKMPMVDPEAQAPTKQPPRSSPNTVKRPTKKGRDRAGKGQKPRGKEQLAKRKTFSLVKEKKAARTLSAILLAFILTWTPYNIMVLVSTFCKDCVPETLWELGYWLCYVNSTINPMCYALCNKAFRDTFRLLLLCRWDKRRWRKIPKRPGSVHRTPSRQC
In short: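 PAM readout is the concentration-dependent rise in the EC20 acetylcholine calcium signal, fitted to a four-parameter logistic (EC50, Emax). Compounds were preincubated from 4 s before ACh at 144 s (EC20) and 230 s (EC80). hM1-expressing CHO-K1 cells loaded with Fluo-4, FDSS ratio read.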

human mAChR M1 [2] = target: T1, human mAChR M1; experiment: mAChR M1 cell-based functional assay (calcium mobilization), agonist mode: compound alone, Emax relative to acetylcholine maximum; conditions: for EC50 / Agonist Activity Human M1 EC50: human mAChR M1
In short: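 Agonist activity is the concentration-dependent rise in intracellular calcium (Fluo-4, 1 Hz read) after compound addition, measured before any acetylcholine was added, in stable hM1 CHO-K1 cells. Curves were 11-point, 1:3 dilutions fitted by four-parameter logistic. Emax is given as a fraction of maximal acetylcholine response.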

[3] = relative to the maximum for acetylcholine

| Compound | EC50 (human mAChR M1 [1]) | Emax (human mAChR M1 [1]) | EC50 (human mAChR M1 [2]) | Emax (human mAChR M1 [2]; [3]) | Agonist Activity Human M1 EC50 (human mAChR M1 [2]) | PAM Activity Emax (human mAChR M1 [1]) | Agonist Activity Emax (human mAChR M1 [2]; [3]) |
| --- | --- | --- | --- | --- | --- | --- | --- |
| [2H]C([2H])([2H])c1cc2c(-c3cc(F)c(CN4C(=O)c5cccnc5C4([2H])[2H])c(F)c3)cccn2n1 [Compound 236, 6-(2,6-Difluoro-4-(2-(methyl-d3)pyrazolo[1,5-a]pyridin-4-yl)benzyl)-6,7-dihydro-5H-pyrrolo[3,4-b]pyridin-5-one-7,7-d2] | 745 nM | 76% | 9560 nM | 22% | – | – | – |
| [2H]C1([2H])c2ncccc2C(=O)N1Cc1c(F)cc(-c2cn(C)c(=O)c3nn(C)cc23)cc1F [Compound 79, 4-(3,5-difluoro-4-((5-oxo-5,7-dihydro-6H-pyrrolo[3,4-b]pyridin-6-yl-7,7-d2)methyl)phenyl)-2,6-dimethyl-2,6-dihydro-7H-pyrazolo[3,4-c]pyridin-7-one] | 793 nM | 79% | ≥ 10000 nM | 16% | – | – | – |
| [2H]C1([2H])c2ncccc2C(=O)N1Cc1c(F)cc(-c2ccc(OCC3CN(C(=O)OC(C)(C)C)C3)c3nn(C)cc23)cc1F [Compound 179, tert-butyl 3-(((4-(3,5-difluoro-4-((5-oxo-5,7-dihydro-6H-pyrrolo[3,4-b]pyridin-6-yl-7,7-d2)methyl)phenyl)-2-methyl-2H-indazol-7-yl)oxy)methyl)azetidine-1-carboxylate] | 1120 nM | 55% | – | 1% | Inactive | – | – |
| [2H]C1([2H])c2ncccc2C(=O)N1Cc1c(C)cc(-c2ccc(OCCOC)c3nn(C)cc23)cc1F [Compound 177, 6-(2-fluoro-4-(7-(2-methoxyethoxy)-2-methyl-2H-indazol-4-yl)-6-methylbenzyl)-6,7-dihydro-5H-pyrrolo[3,4-b]pyridin-5-one-7,7-d2] | 201 nM | 82% | 6120 nM | 27% | – | – | – |
| [2H]C1([2H])c2ncccc2C(=O)N1Cc1c(F)cc(-c2cccc3c2cnn3C)cc1F [Compound 35, 6-(2,6-difluoro-4-(1-methyl-1H-indazol-4-yl)benzyl)-6,7-dihydro-5H-pyrrolo[3,4-b]pyridin-5-one-7,7-d^2] | 2420 nM | 63% | > 10000 nM | 2% | – | – | – |
| [2H]C1([2H])c2ncccc2C(=O)N1Cc1c(F)cc(-c2cnc3nn(C)cc3c2)cc1Cl [Compound 168, 6-(2-chloro-6-fluoro-4-(2-methyl-2H-pyrazolo[3,4-b]pyridin-5-yl)benzyl)-6,7-dihydro-5H-pyrrolo[3,4-b]pyridin-5-one-7,7-d2] | 1480 nM | 86% | – | 6% | Inactive | – | – |
| [2H]C1([2H])c2ncccc2C(=O)N1Cc1c(F)cc(-c2cccc3nn(CF)cc23)cc1F [Compound 44, 6-(2,6-difluoro-4-(2-(fluoromethyl)-2H-indazol-4-yl)benzyl)-6,7-dihydro-5H-pyrrolo[3,4-b]pyridin-5-one-7,7-d2] | 413 nM | 78% | > 10000 nM | 28% | – | – | – |
| [2H]C([2H])([2H])Oc1cc(-c2cc(F)c(CN3C(=O)c4cccnc4C3([2H])[2H])c(F)c2)c2cn(C([2H])([2H])[2H])nc2c1 [Compound 87, 6-(2,6-difluoro-4-(6-(methoxy-d3)-2-(methyl-d3)-2H-indazol-4-yl)benzyl)-6,7-dihydro-5H-pyrrolo[3,4-b]pyridin-5-one-7,7-d2] | 819 nM | 69% | – | 11% | Inactive | – | – |
| [2H]C1([2H])c2ncccc2C(=O)N1Cc1ccc(-c2ccnc3nn(C)cc23)cc1F [Compound 22, 6-(2-fluoro-4-(2-methyl-2H-pyrazolo[3,4-b]pyridin-4-yl)benzyl)-6,7-dihydro-5H-pyrrolo[3,4-b]pyridin-5-one-7,7-d2] | 1940 nM | 74% | – | 6% | Inactive | – | – |
| [2H]C1([2H])c2ncccc2C(=O)N1Cc1ccc(-c2cnc3nn(C)cc3c2)cc1F [Compound 21, 6-(2-fluoro-4-(2-methyl-2H-pyrazolo[3,4-b]pyridin-5-yl)benzyl)-6,7-dihydro-5H-pyrrolo[3,4-b]pyridin-5-one-7,7-d2] | 2420 nM | 76% | – | 6% | Inactive | – | – |
| [2H]C1([2H])c2ncccc2C(=O)N1Cc1c(C)cc(-c2ccc(OC3CC3)c3nn(C)cc23)cc1F [Compound 196, 6-(4-(7-cyclopropoxy-2-methyl-2H-indazol-4-yl)-2-fluoro-6-methylbenzyl)-6,7-dihydro-5H-pyrrolo[3,4-b]pyridin-5-one-7,7-d2] | 437 nM | 83% | 8680 nM | 43% | – | – | – |
| [2H]C1([2H])c2ncccc2C(=O)N1Cc1c(F)cc(-c2ccc(OCC)c3nn(C([2H])([2H])[2H])cc23)cc1F [Compound 97, 6-(4-(7-ethoxy-2-(methyl-d3)-2H-indazol-4-yl)-2,6-difluorobenzyl)-6,7-dihydro-5H-pyrrolo[3,4-b]pyridin-5-one-7,7-d2] | 164 nM | 88% | 5940 nM | 25% | – | – | – |
| [2H]C1([2H])c2ncccc2C(=O)N1Cc1c(F)cc(-c2cccc3nn(C)cc23)cc1C1CCCC1 [Compound 223, 6-(2-cyclopentyl-6-fluoro-4-(2-methyl-2H-indazol-4-yl)benzyl)-6,7-dihydro-5H-pyrrolo[3,4-b]pyridin-5-one-7,7-d2] | 5240 nM | 59% | – | 1% | Inactive | – | – |
| [2H]C1([2H])c2ncccc2C(=O)N1Cc1c(F)cc(-c2cccc3nn(C(F)F)cc23)cc1F [Compound 50, 6-(4-(2-(difluoromethyl)-2H-indazol-4-yl)-2,6-difluorobenzyl)-6,7-dihydro-5H-pyrrolo[3,4-b]pyridin-5-one-7,7-d2] | 332 nM | 85% | – | 4% | Inactive | – | – |
| [2H]C1([2H])c2ncccc2C(=O)N1Cc1c(Cl)cc(-c2cccc3nn(C)cc23)cc1C1CC1 [Compound 219, 6-(2-chloro-6-cyclopropyl-4-(2-methyl-2H-indazol-4-yl)benzyl)-6,7-dihydro-5H-pyrrolo[3,4-]pyridin-5-one-7,7-d2] | 490 nM | 89% | – | 8% | Inactive | – | – |
| [2H]C1([2H])c2ncccc2C(=O)N1Cc1c(F)cc(-c2ccc(OC3CC3)c3nn(C)cc23)cc1C1CC1 [Compound 202, 6-(4-(7-cyclopropoxy-2-methyl-2H-indazol-4-yl)-2-cyclopropyl-6-fluorobenzyl)-6,7-dihydro-5H-pyrrolo[3,4-b]pyridin-5-one-7,7-d2] | 429 nM | 81% | 3240 nM | 44% | – | – | – |
| [2H]C1([2H])c2ncccc2C(=O)N1Cc1c(F)cc(-c2ccc3nn(C)cc3c2)cc1C1CC1 [Compound 193, 6-(2-cyclopropyl-6-fluoro-4-(2-methyl-2H-indazol-5-yl)benzyl)-6,7-dihydro-5H-pyrrolo[3,4-b]pyridin-5-one-7,7-d2] | 266 nM | 88% | 9830 nM | 11% | – | – | – |
| [2H]C1([2H])c2ncccc2C(=O)N1Cc1c(F)cc(-c2ccc(OC3CC3)c3nn(C)cc23)cc1OCC(C)C [Compound 212, 6-(4-(7-cyclopropoxy-2-methyl-2H-indazol-4-yl)-2-fluoro-6-isobutoxybenzyl)-6,7-dihydro-5H-pyrrolo[3,4-b]pyridin-5-one-7,7-d2] | 1450 nM | 82% | – | 2% | Inactive | – | – |
| [2H]C1([2H])c2ncccc2C(=O)N1Cc1c(F)cc(-c2ccc(OC(C)C)c3nn(C([2H])([2H])[2H])cc23)cc1F [Compound 99, 6-(2,6-difluoro-4-(7-isopropoxy-2-(methyl-d3)-2H-indazol-4-yl)benzyl)-6,7-dihydro-5H-pyrrolo[3,4-b]pyridin-5-one-7,7-d2] | 285 nM | 83% | 5800 nM | 25% | – | – | – |
| [2H]C1([2H])c2ncccc2C(=O)N1Cc1c(F)cc(-c2ccc(OC3COC3)c3nn(C)cc23)cc1F [Compound 139, 6-(2,6-difluoro-4-(2-methyl-7-(oxetan-3-yloxy)-2H-indazol-4-yl)benzyl)-6,7-dihydro-5H-pyrrolo[3,4-b]pyridin-5-one-7,7-d2] | 188 nM | 75% | 5040 nM | 36% | – | – | – |
| [2H]C1([2H])c2ncccc2C(=O)N1Cc1c(F)cc(-c2cccc3c2cnn3C(F)F)cc1F [Compound 60, 6-(4-(1-(difluoromethyl)-1H-indazol-4-yl)-2,6-difluorobenzyl)-6,7-dihydro-5H-pyrrolo[3,4-b]pyridin-5-one-7,7-d2] | 693 nM | – | – | – | Inactive | 34% | 4% |
